Reference: patent US20210000852A1, “POLYDATIN PACLITAXEL COMPOSITION, AND APPLICATION IN PREPARING MEDICAMENT FOR PREVENTING AND TREATING GASTRIC CANCER” (Tianjin Medical University Cancer Institute and Hospital, priority 2018, published 2021)

Key:
[1] = test system: human gastric cancer cells SGC-7901; assay: CCK-8 growth and proliferation activity, SGC-7901 cells; assay type: cell-based; conditions: for inhibition of the activity of gastric cancer cells (single agent): SGC-7901, 24 h, concentration gradients; for IC50 / IC50 of SGC-7901 cells: SGC-7901, treated for 24 h
Text: (§1) Human gastric cancer cell line SGC-7901 was purchased from Shanghai Genechem Co., Ltd. and human gastric cancer cell line AGS was purchased from Cell Bank of American Type Culture Collection (ATCC) (ATCC No. CRL-1739).
(§2) In FIG. 5, the mass ration of composition is as follows: (a) mPD: mPaclitaxel=22.65:1 (Example 3); (b) mPD: mPaclitaxel=45.29:1; (c) mPD: mPaclitaxel=90.59:1; (d) mPD: mPaclitaxel=226.48:1. In FIG. 6, the mass ration of composition is as follows: (a) mPD: mPaclitaxel=8.44:1; (b) mPD: mPaclitaxel=16.88:1; (c) mPD: mPaclitaxel=33.77:1 (Example 4).
(§3) In FIG. 7, the mass ration of composition is as follows: (a) mPD: mPactitaxel=45.29:1; (b) mPD: mPaclitaxel=90.59:1; (c) mPD: mPaclitaxel=226.48:1. In FIG. 8, the mass ration of composition is as follows: (a) mPD: mPaclitaxel=16.88:1; (b) mPD: mPaclitaxel=33.77:1.

[2] = test system: human gastric cancer cells AGS; assay: CCK-8 growth and proliferation activity, AGS cells; assay type: cell-based; conditions: for inhibition of the activity of gastric cancer cells (single agent): 24 h, concentration gradients; for IC50 / IC50 of AGS cells: treated for 24 h
Text: as §1, §2, §3

Row | Molecule | inhibition of the activity of gastric cancer cells (single agent) [1] | IC50 [1] | IC50 of SGC-7901 cells [1] | inhibition of the activity of gastric cancer cells (single agent) [2] | IC50 [2] | IC50 of AGS cells [2]
1 | CC(=O)O[C@H]1C(=O)[C@@]2(C)[C@H]([C@H](OC(=O)c3ccccc3)[C@]3(O)C[C@H](OC(=O)[C@H](O)[C@@H](NC(=O)c4ccccc4)c4ccccc4)C(C)=C1C3(C)C)[C@]1(OC(C)=O)CO[C@@H]1C[C@@H]2O [Paclitaxel] | inhibit the activity of both gastric cancer cells in a concentration-dependent manner | 5.27 µM | 5.5 µg/mL | inhibit the activity of both gastric cancer cells in a concentration-dependent manner | 3.34 µM | 6.3 µg/mL
2 | Polydatin | inhibit the activity of both gastric cancer cells in a concentration-dependent manner | 139 µM | 124.0 µg/mL | inhibit the activity of both gastric cancer cells in a concentration-dependent manner | 56.2 µM | 53.5 µg/mL
